Measured values: PubChem BioAssay AID844 (SRMLSC, 2007)
The source made the active and inactive calls. The rule behind the calls is not given here.

System: MRP1 cells, doxorubicin viability shift, 10 uM compound
Test: doxorubicin EC50 increase in MRP-1 cells, dose response, cell-based, doxorubicin EC50 shift (AID 844)
Conditions: for EC50: measured here: doxorubicin EC50 with compound

Cc1cc(C)nc(NN2C(=O)/C(=C/c3ccc(O)cc3)SC2=S)n1
fold increase in Dox EC50: 1.39 (inactive) | EC50: 7.51 µM

COc1ccc(-n2ncc3c(N4CCCc5ccccc54)ncnc32)cc1
fold increase in Dox EC50: 0.67 (inactive) | EC50: 3.62 µM

Cc1onc(-c2ccccc2)c1C(=O)Nc1nnc(N(C)Cc2ccccc2)s1
fold increase in Dox EC50: 0.64 (inactive) | EC50: 3.46 µM

C=CCc1c(C)nc(-c2ccccc2)nc1N/N=C/c1ccccc1
fold increase in Dox EC50: 0.87 (inactive) | EC50: 4.7 µM

CCCCCCC(=O)Nc1ccc(C(=O)N/N=C/c2cccnc2)cc1
fold increase in Dox EC50: 0.13 (inactive) | EC50: 0.694 µM

c1ccc(C(c2ccccc2)N2CCN(c3nc4ccccc4n4cnnc34)CC2)cc1
fold increase in Dox EC50: 0.81 (inactive) | EC50: 4.39 µM

CCOc1ccccc1C(=O)OCC(=O)Nc1ccc(OC(F)F)cc1
fold increase in Dox EC50: 0.93 (inactive) | EC50: 5.04 µM

COc1ccc(C(=O)NCc2ccccc2)cc1S(=O)(=O)N1CCCc2ccccc21
fold increase in Dox EC50: 0.56 (inactive) | EC50: 3.02 µM

O=C(CN1C(=O)/C(=C/c2ccccc2)SC1=S)Nc1ncc(Cc2ccccc2)s1
fold increase in Dox EC50: 1.49 (inactive) | EC50: 8.03 µM

Cc1cc(NC(=O)c2cc(C(C)C)on2)nn1Cc1ccc(Cl)cc1
fold increase in Dox EC50: 1.35 (inactive) | EC50: 7.27 µM

CCC(Oc1ccccc1)C(=O)Nc1nnc(C(F)(F)F)s1 (configuration not stated)
fold increase in Dox EC50: 1.69 | EC50: 9.1 µM

N=C(N)SCc1nc2ccccn2c1Br
fold increase in Dox EC50: 0.28 (inactive) | EC50: 1.49 µM

COC(=O)C1=C(C)NC(C)=C(C(=O)OC)C1c1ccccc1OCc1c(C)no[n+]1[O-]
fold increase in Dox EC50: 0.98 (inactive) | EC50: 5.32 µM

c1ccc(OCCSc2nc3ccccc3[nH]2)cc1
fold increase in Dox EC50: 1.03 (inactive) | EC50: 5.54 µM

CCOC(=O)C1CCCN(Cc2ccc(OC)cc2OC)C1 (configuration not stated)
fold increase in Dox EC50: 0.35 (inactive) | EC50: 1.91 µM

N=C(N)SCc1ccccc1Cl
fold increase in Dox EC50: 0.42 (inactive) | EC50: 2.25 µM

CC1CCC(NC(=O)Cn2c3c(c(-c4ccccc4Cl)cc2=O)CCC3)CC1 (configuration not stated)
fold increase in Dox EC50: 1.13 (inactive) | EC50: 6.11 µM

CCOC(=O)N1CCN(c2nc(-c3cccc(OC)c3)cc(C(F)(F)F)n2)CC1
fold increase in Dox EC50: 1.11 (inactive) | EC50: 6.02 µM

COc1ccc(NC2=Nc3ccccc3N3C2=Nc2c(c(C)nn2-c2ccc(C)cc2)C3c2cccnc2)cc1 (configuration not stated)
fold increase in Dox EC50: 0.6 (inactive) | EC50: 3.24 µM

O=C(NCc1ccc(Cl)cc1)C(=O)NCC1OCCN1C(=O)c1cccs1 (configuration not stated)
fold increase in Dox EC50: 1.33 (inactive) | EC50: 7.17 µM

O=C(NCc1ccc(F)cc1)C(=O)NCC1OCCN1C(=O)c1cccs1 (configuration not stated)
fold increase in Dox EC50: 1.24 (inactive) | EC50: 6.68 µM

COc1ccc(Cl)cc1N1C(=O)C2CCCN2C1c1ccc(F)c(F)c1 (configuration not stated)
fold increase in Dox EC50: 0.85 (inactive) | EC50: 4.61 µM

CCOC(=O)c1ccc(NC(=O)C2CCN(C(=O)c3ccc(OC)c(OC)c3)CC2)cc1
fold increase in Dox EC50: 0.99 (inactive) | EC50: 5.35 µM

Cc1[nH]c2ccccc2c1C(=O)C(=O)NCCC1=CCCCC1
fold increase in Dox EC50: 0.98 (inactive) | EC50: 5.3 µM

CCOC(=S)NC(=O)c1sc2ccccc2c1Cl
fold increase in Dox EC50: 1.32 (inactive) | EC50: 7.13 µM

CC(=O)N1CCN=C1SCc1ccc(Br)cc1
fold increase in Dox EC50: 0.97 (inactive) | EC50: 5.26 µM

O=C(NC(=S)Nc1ccccc1N1CCOCC1)c1ccc(-c2cc(Cl)ccc2Cl)o1
fold increase in Dox EC50: 1 (inactive) | EC50: 5.42 µM

O=C1c2cccc(OCc3ccc(F)cc3)c2CCN1Cc1ccc(F)cc1
fold increase in Dox EC50: 1.08 (inactive) | EC50: 5.82 µM

COc1ccc(NC(=O)CC2C(=O)N(c3ccc(F)cc3)C(=S)N2NC(=O)c2ccccc2)cc1 (configuration not stated)
fold increase in Dox EC50: 0.79 (inactive) | EC50: 4.29 µM

Cc1cc(C)n(-c2nc3ccccc3nc2Nc2ccc3c(c2)OCO3)n1
fold increase in Dox EC50: 0.75 (inactive) | EC50: 4.02 µM

CCCCn1nnc(NC(=S)NC(=O)c2cccs2)n1
fold increase in Dox EC50: 1.16 (inactive) | EC50: 6.26 µM

CC(C)(C)c1ccc(C(=O)CSc2ncn[nH]2)cc1
fold increase in Dox EC50: 0.82 (inactive) | EC50: 4.41 µM

N#CC1=C2C=Cc3ccccc3N2CCCC1=O
fold increase in Dox EC50: 1.28 (inactive) | EC50: 6.9 µM

Cn1c(C(=O)NCc2ccccc2)cc2oc3ccccc3c21
fold increase in Dox EC50: 1.46 (inactive) | EC50: 7.9 µM

O=C(NCC(F)(F)F)Nc1nnc(C(F)(F)F)s1
fold increase in Dox EC50: 1.54 | EC50: 8.33 µM

N#CCSc1n[nH]c2nc3c(c(=O)n12)C1(CCCC1)Cc1ccccc1-3
fold increase in Dox EC50: 0.46 (inactive) | EC50: 2.49 µM

COc1ccc(-n2c(SCC(=O)Nc3ccccc3)nc3c(c2=O)SCC3)cc1
fold increase in Dox EC50: 0.22 (inactive) | EC50: 1.18 µM

CCOC(=O)c1c(NC(=O)CSc2ncn[nH]2)sc(C)c1C
fold increase in Dox EC50: 0.32 (inactive) | EC50: 1.74 µM

O=C1CCCC(O)=C1N=Nc1ccc2c(c1)OCO2
fold increase in Dox EC50: 1.17 (inactive) | EC50: 6.29 µM

O=C(Nc1nnc(COc2ccc(Cl)cc2)s1)C1CCCO1 (configuration not stated)
fold increase in Dox EC50: 1.2 (inactive) | EC50: 6.46 µM

CCN(Cc1ccccc1)C(=O)CSc1nc(C)cc(C)c1C#N
fold increase in Dox EC50: 0.59 (inactive) | EC50: 3.19 µM

O=C1C=C(O)CC(c2ccc(Cl)cc2)C1 (configuration not stated)
fold increase in Dox EC50: 1.04 (inactive) | EC50: 5.6 µM

CNc1sc(C(=O)c2cccs2)c(N)c1-c1nc2ccccc2s1
fold increase in Dox EC50: 0.56 (inactive) | EC50: 3.03 µM

CCC1(C)Cc2c(sc3nnn(CC(=O)Nc4ccc(Cl)cc4)c(=O)c23)CO1 (configuration not stated)
fold increase in Dox EC50: 0.2 (inactive) | EC50: 1.09 µM

COc1ccc(-c2c(C#N)c(N)nc3sc(C(=O)c4ccccc4)c(N)c23)cc1
fold increase in Dox EC50: 0.34 (inactive) | EC50: 1.86 µM

CCc1c(C)sc(NC(=O)c2cc(CC(C)C)on2)c1C#N
fold increase in Dox EC50: 0.64 (inactive) | EC50: 3.45 µM

COc1cccc(-c2csc(NC(=O)Oc3ccccc3)n2)c1
fold increase in Dox EC50: 1.52 | EC50: 8.23 µM

O=C(COc1ccc(Br)cc1)N1CCN(C2CCCC2)CC1
fold increase in Dox EC50: 1.08 (inactive) | EC50: 5.85 µM

CCCCCOc1ccc(CSc2ncn[nH]2)cc1
fold increase in Dox EC50: 0.68 (inactive) | EC50: 3.69 µM

Cc1c(N2C(=O)/C(=C/c3ccccc3)SC2=S)c(=O)n(-c2ccccc2)n1C
fold increase in Dox EC50: 0.58 (inactive) | EC50: 3.15 µM

CCn1c(CNC(=O)COc2ccc(C(C)C)cc2)nnc1SCC(=O)Nc1ccccc1C(C)C
fold increase in Dox EC50: 1.04 (inactive) | EC50: 5.63 µM

COC(=O)c1ccc(NC(=O)C(=O)N2CCN(C(=S)Nc3cccc(OC)c3)CC2)cc1
fold increase in Dox EC50: 1.28 (inactive) | EC50: 6.93 µM

Cc1onc(-c2ccccc2Cl)c1C(=O)Nc1nnc(-c2ccc(Br)cc2)s1
fold increase in Dox EC50: 0.75 (inactive) | EC50: 4.04 µM

Cc1c(C(=O)Nc2nnc(C(F)(F)F)s2)oc2ccccc12
fold increase in Dox EC50: 2.05 | EC50: 11 µM

CCC(=O)N1CCN=C1SCc1ccc(F)cc1
fold increase in Dox EC50: 0.75 (inactive) | EC50: 4.07 µM

COc1cccc(/C=N/NC(=O)Cn2nc(C)c([N+](=O)[O-])c2C)c1O
fold increase in Dox EC50: 0.12 (inactive) | EC50: 0.673 µM

Cc1noc(/C=C/N(C)C)c1S(=O)(=O)N1CCCC(C(=O)NCc2ccco2)C1 (configuration not stated)
fold increase in Dox EC50: 1.04 (inactive) | EC50: 5.6 µM

COc1ccc(C(=O)NCCn2cc(SCC(=O)Nc3nnc(C)s3)c3ccccc32)cc1
fold increase in Dox EC50: 0.5 (inactive) | EC50: 2.72 µM

CC1(C)O[C@@H]2C[C@H]3[C@@H]4C[C@H](F)C5=CC(=O)CC[C@]5(C)[C@H]4[C@@H](O)C[C@]3(C)[C@]2(C(=O)CO)O1
fold increase in Dox EC50: 0.65 (inactive) | EC50: 3.52 µM

Cc1ccnc(NC(=O)COc2ccc3oc4c(c3c2)CCCC4)c1
fold increase in Dox EC50: 0.78 (inactive) | EC50: 4.21 µM

O=C(Nc1ncc(Cc2ccccc2Cl)s1)c1ccc(-c2cccc([N+](=O)[O-])c2)o1
fold increase in Dox EC50: 0.81 (inactive) | EC50: 4.38 µM

Cc1ccc(OCCN2CCN(C(=O)CCC(=O)Nc3nnc(C)s3)CC2)cc1
fold increase in Dox EC50: 1.53 | EC50: 8.28 µM

O=C1NC(=Nc2ccc(Cl)cc2)SC1Cc1cc(Cl)ccc1Cl (configuration not stated)
fold increase in Dox EC50: 1.09 (inactive) | EC50: 5.86 µM

CCCCc1nnc(NC(=O)CSc2nc(=O)cc(N)n2-c2cccc(C)c2)s1
fold increase in Dox EC50: 1.31 (inactive) | EC50: 7.08 µM

CN(CC(=O)NCCc1ccc(Cl)cc1)S(=O)(=O)c1ccc2c(c1)c(=O)n(C)c(=O)n2C
fold increase in Dox EC50: 0.54 (inactive) | EC50: 2.93 µM

COc1ccc(N2C(=O)CC(N3CCC(n4c(=O)[nH]c5ccccc54)CC3)C2=O)cc1 (configuration not stated)
fold increase in Dox EC50: 1.04 (inactive) | EC50: 5.64 µM

Cc1ccc(/C=C2\SC(=S)N(c3c(C)n(C)n(-c4ccccc4)c3=O)C2=O)cc1
fold increase in Dox EC50: 0.97 (inactive) | EC50: 5.23 µM

O=C1CC(c2nc3ccccc3[nH]2)CN1c1cccc(C(F)(F)F)c1 (configuration not stated)
fold increase in Dox EC50: 1.24 (inactive) | EC50: 6.7 µM

Cc1ccc(C2CC(C(F)(F)F)n3nc(C(=O)NCc4c(C)nn(C)c4C)c(Cl)c3N2)cc1 (configuration not stated)
fold increase in Dox EC50: 1.13 (inactive) | EC50: 6.1 µM

CCCCOc1ccc(C(=O)Oc2ccc(C)nc2)cc1
fold increase in Dox EC50: 0.9 (inactive) | EC50: 4.88 µM

CCC(C)c1ccc(O)c(NC(=O)c2ncn[nH]2)c1 (configuration not stated)
fold increase in Dox EC50: 0.97 (inactive) | EC50: 5.25 µM

CCn1c(SCc2ccc(Cl)cc2)nc2nc3c(cc2c1=O)CCCC3
fold increase in Dox EC50: 0.77 (inactive) | EC50: 4.17 µM

O=C(CC(c1ccccc1)c1ccccc1)Nc1ncn[nH]1
fold increase in Dox EC50: 0.75 (inactive) | EC50: 4.03 µM

CCc1ccc(-c2nc(-c3ccncc3)no2)cc1
fold increase in Dox EC50: 0.89 (inactive) | EC50: 4.82 µM

CS(=O)(=O)Nc1nnc(Cc2ccccc2)s1
fold increase in Dox EC50: 0.75 (inactive) | EC50: 4.04 µM

Cc1ccc2nc(Nc3nc(CSc4nc5ccccc5s4)cc(=O)[nH]3)nc(C)c2c1
fold increase in Dox EC50: 1.08 (inactive) | EC50: 5.81 µM
